From publication PMC3927474, “Whole body synthesis rates of DHA from α-linolenic acid are greater than brain DHA accretion and uptake rates in adult rats” (Journal of Lipid Research, 2014)
Where “and” joins values, the source holds several entries; their conditions need not be identical. Equal entries are not always repeated. Marks after values point to notes of the source that are not given here.

Key:
[1] = Balance study: n-3 and n-6 PUFA balance (intake, excretion, accretion, metabolic consumption); assay type: in vivo, rat; details: for Fecal excretion: mean % excretion applied to intake; for Fecal excretion / Metabolic consumption of dietary PUFAs: DHA group: refers to DHA; for Dietary PUFA excreted in the feces: 24 h feces at 8 weeks postweaning, percentage of intake; for Metabolic consumption of dietary PUFAs: n-3 PUFA, Eq. 1, 15 weeks
Experimental: All procedures were performed in accordance with the policies set out by the Canadian Council on Animal Care and were approved by the Animal Ethics Committee at the University of Toronto. Three Long Evans dams each with 18-day-old male Long Evans pups were ordered from Charles River Laboratories (St. Constant, QC, Canada). Pups were nonlittermates and each dam was housed with pups. Upon arrival, dams were allocated to one of the three diets (described below). When the pups were 21 days old, two pups from each dam were euthanized by high-energy head-focused microwave fixation (4.5 kW for 0.9 s). Brains were removed immediately and stored at -80°C until lipid analysis. Bodies were also stored at -80°C immediately after euthanization until analysis. The brains and bodies of these pups were used to determine the PUFA content of the rats at weaning (i.e., baseline PUFA content). […] For the balance study, the rats were weighed, food intake was determined, and uneaten food was replaced with fresh food on a weekly basis. Rats were euthanized by CO2 asphyxiation. Brains were removed and dissected sagittally. Carcasses and one half brain per rat were stored immediately at -80°C (to be later analyzed for lipid content). […] For the steady-state infusion study and the brain DHA uptake study, a jugular vein catheter was surgically implanted into the rats. […] Carcasses were thawed overnight in a refrigerator at 3°C, cut into pieces, and passed through a #12 hand grinder. After the whole body had passed through the grinder once, the homogenate was mixed together by hand and passed at least one more time through the grinder until the mixture was sufficiently homogeneous. Due to the small size of the pups all of the 21-day-old pup bodies were passed through the grinder together. […] New chloroform was added to the remaining aqueous phase, the mixture was once again centrifuged, and the chloroform layer was extracted and added to the previously extracted chloroform layer. […] One hemisphere was thawed briefly and dissected over ice to separate the brainstem, cerebellum, cortex, hippocampus, striatum, and the rest of the brain. […] The homogenizer was then washed with methanol, which was then transferred to the test tube containing the homogenized brain and KCl. […] The chloroform layer was extracted and new chloroform was added to the aqueous phase. […] At 8 weeks postweaning all the feces produced by a rat in 24 h were collected. […] Mean PUFA excretion (percentage of intake) was determined and applied to all animals to determine PUFA excretion. […] Nu-Check Prep, Elysian, MN) was added to the TLE. […] Samples were injected in […] mode. The injector and detector ports were set at 250°C. […] The carrier gas was helium, set to a constant flow rate of 0.7 ml/min. Peaks were identified by retention times of authentic FAME standards (Nu-Chek Prep). […] The concentrations were expressed on a per gram basis then multiplied by total weight of the tissue to determine the total amount of each fatty acid in the tissue.

[2] = Brain DHA uptake study: ^14C-DHA infusion; assay type: in vivo, rat; details: for Brain DHA uptake rate: 5 min ^14C-DHA infusion, 15 wk diet
Experimental: At 15 weeks postweaning, a surgery was performed to implant a catheter into the jugular vein (described above). […] After 5 min of ^14C-DHA infusion rats were euthanized by high-energy head-focused microwave fixation (13.5 kW for 1.6 s). The brains were then removed, dissected sagittally and stored at −80°C until analysis.
A known portion of the plasma TLE was then added to a scintillation vial with 5 ml of scintillation cocktail (GE Healthcare Life Sciences, Baie d'Urfe, QC, Canada). Radioactivity was measured using liquid scintillation counting to determine the plasma AUC for radioactivity. For plasma samples drawn at time 0 s of the infusion, the unesterified lipids were isolated by TLC and quantified using GC-FID (described above).
Radioactivity was quantified by a Packard TRI-CARB2900TR liquid scintillation analyzer (Packard, Meriden, CT) with a detector efficiency of 48.8%. Radioactivity was expressed in disintegrations per minute; then converted to nCi.
Brain hemispheres were homogenized and lipids extracted as described above. A known portion of the TLE was then added to a scintillation tube with 5 ml of scintillation cocktail. Radioactivity was quantified using liquid scintillation counting.
To determine the brain DHA uptake rate, the incorporation coefficient for DHA from the unesterified plasma pool into the brain total lipid pool is ([26]):(Eq. 5) k^*=cbr*(T)/∫0Tcpl*dt where cbr*(T) is the total brain radioactivity at the end of the infusion and ∫0Tcpl*dt is the plasma radioactivity AUC.
Multiplying the incorporation coefficient by the concentration of plasma unesterified DHA (cpl) allows for the determination of the brain DHA uptake rate:(Eq. 6) Jin=k^*cpl

[3] = average over 15 weeks, listed as DHA diet

Structure (SMILES)	Metabolic consumption of dietary PUFA (n-6) ([1]; 15 weeks)	Fecal excretion ([1]; 15 weeks)	Body Content of n-6 PUFA, Day 105 ([1]; 15 wk diet)	Brain Content of n-6 PUFA, Day 105 ([1]; 15 wk diet)	Total Accretion: 18:3n-6 ([1]; 15 wk diet)	Total Accretion: 20:2n-6 ([1]; 15 wk diet)	Total Accretion: 22:4n-6 ([1]; 15 wk diet)	Total Accretion: ARA ([1]; 15 wk diet)	Total Accretion: LNA ([1]; 15 wk diet)	Total Accretion: Total n-6 PUFA ([1]; 15 wk diet)	Dietary PUFA excreted in the feces [1]	Brain DHA accretion rate (balance study) ([1]; average over 15 weeks)	Brain Content of n-6 PUFA, Day 0 ([1]; baseline)	Total accretion: DHA ([1]; body + brain, 15 wk diet)	Metabolic consumption of dietary PUFAs [1]	Brain DHA uptake rate [2]	other results
CC/C=C\C/C=C\C/C=C\C/C=C\C/C=C\C/C=C\CCC(=O)O [DHA, Docosahexaenoic acid]	157517 µmol	10 ± 0.4 µmol	32391 µmol	17 µmol	41 µmol	167 µmol	97 µmol	1539 µmol	28810 µmol	30720 µmol	0.07 ± 0.02%	0.042 ± 0.007 µmol/day	14 µmol	1119 ± 62^c μmol	15783 ± 548^b,** μmol	858.6 ± 74.8 nmol/day	Brain DHA accretion rate (balance study) [1, 3]: 0.042 µmol/day; DHA uptake and accretion rate into the brain (balance study) [1, 3]: 42 nmol/day and 42 ± 7 nmol/day; Uptake rate of DHA into the brain, DHA-fed relative to ALA-fed rats ([2]; rat, in vivo): ~2 fold
CC/C=C\C/C=C\C/C=C\CCCCCCCC(=O)O [ALA, α-linolenic acid]	147161 µmol	57 ± 2 µmol	29170 µmol	20 µmol	52 µmol	169 µmol	138 µmol	1806 µmol	25157 µmol	27489 µmol	0.27 ± 0.002%	0.032 ± 0.005 µmol/day	14 µmol	440 ± 39^b μmol	19037 ± 617^b μmol	467.6 ± 93.7 nmol/day	Fecal Excretion of LNA ([1]; 15 weeks): 877 µmol; Body content of n-3 PUFAs, Day 105 ([1]; 15 wk diet, n = 11): 2352 ± 166^b μmol; Brain content of n-3 PUFAs, Day 105 ([1]; 15 wk diet, n = 11): 14 ± 2^b μmol; Total DHA synthesis-accretion rate (balance study) ([1]; average over 15 weeks, body + brain, listed as ALA diet): 4.2 µmol/day and 4.2 ± 0.4 µmol/day; DHA synthesis and accretion in ALA-fed rats relative to brain DHA accretion of DHA-fed rats ([1]; balance study): 100 fold; Dietary ALA metabolically consumed ([1]; balance study): approximately 90%; Body Content of n-6 PUFA, Day 0 ([1]; baseline): 1491 µmol; Body content of n-3 PUFAs, Day 0 ([1]; baseline, 21-day-old pups, n = 2): 139 ± 3 µmol; Brain content of n-3 PUFAs, Day 0 ([1]; baseline, n = 2): 10 ± 0.6 µmol; Total accretion: 20:3n-3 ([1]; body + brain, 15 wk diet): 110 ± 11^ab μmol; Total accretion: ALA ([1]; body + brain, 15 wk diet): 1500 ± 100^b μmol; Total accretion: DPAn-3 ([1]; body + brain, 15 wk diet): 90 ± 7^b μmol; Total accretion: EPA ([1]; body + brain, 15 wk diet): 70 ± 10^b μmol; Total accretion: Total n-3 PUFA ([1]; body + brain, 15 wk diet): 2209 ± 107^b μmol; Brain DHA uptake rate ([2]; listed as ALA diet): 468 nmol/day
